This passage reports Ki results from BindingDB's records for doi:10.1016/j.bmcl.2005.11.067 (Merck Sharp and Dohme Research Laboratories, 2006).

This assay has as its target T1, Alpha-1A/Alpha-1B/Alpha-1D adrenergic receptor (Rattus norvegicus, UniProt P15823+P23944+P43140).
T1 sequence (P15823 whole entry): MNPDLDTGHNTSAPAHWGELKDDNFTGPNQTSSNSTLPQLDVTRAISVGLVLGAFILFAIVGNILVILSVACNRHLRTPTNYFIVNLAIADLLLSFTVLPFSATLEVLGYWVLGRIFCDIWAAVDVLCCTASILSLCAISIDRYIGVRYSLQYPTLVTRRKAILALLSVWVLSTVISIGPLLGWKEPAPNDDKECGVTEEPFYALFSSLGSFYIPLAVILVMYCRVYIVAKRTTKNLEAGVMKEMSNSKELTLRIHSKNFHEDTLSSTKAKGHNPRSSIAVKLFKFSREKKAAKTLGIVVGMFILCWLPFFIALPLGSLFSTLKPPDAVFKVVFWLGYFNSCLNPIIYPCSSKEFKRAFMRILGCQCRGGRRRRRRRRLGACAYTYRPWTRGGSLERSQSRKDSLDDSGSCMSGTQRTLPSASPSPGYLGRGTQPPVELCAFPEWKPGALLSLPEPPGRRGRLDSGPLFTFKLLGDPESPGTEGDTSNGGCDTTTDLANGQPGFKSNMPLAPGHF
T1 sequence (P43140 whole entry): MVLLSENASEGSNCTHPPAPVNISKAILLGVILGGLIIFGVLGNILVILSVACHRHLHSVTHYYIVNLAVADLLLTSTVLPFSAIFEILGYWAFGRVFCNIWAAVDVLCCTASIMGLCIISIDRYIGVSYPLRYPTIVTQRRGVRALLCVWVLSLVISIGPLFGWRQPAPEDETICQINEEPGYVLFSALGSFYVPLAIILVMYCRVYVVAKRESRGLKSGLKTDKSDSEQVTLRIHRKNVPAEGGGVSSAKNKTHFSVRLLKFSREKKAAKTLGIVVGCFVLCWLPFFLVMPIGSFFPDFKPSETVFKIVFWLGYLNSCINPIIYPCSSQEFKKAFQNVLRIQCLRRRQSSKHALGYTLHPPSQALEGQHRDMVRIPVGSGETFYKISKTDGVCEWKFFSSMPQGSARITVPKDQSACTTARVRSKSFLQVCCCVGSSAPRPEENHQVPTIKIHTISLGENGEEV
T1 sequence (P23944 whole entry): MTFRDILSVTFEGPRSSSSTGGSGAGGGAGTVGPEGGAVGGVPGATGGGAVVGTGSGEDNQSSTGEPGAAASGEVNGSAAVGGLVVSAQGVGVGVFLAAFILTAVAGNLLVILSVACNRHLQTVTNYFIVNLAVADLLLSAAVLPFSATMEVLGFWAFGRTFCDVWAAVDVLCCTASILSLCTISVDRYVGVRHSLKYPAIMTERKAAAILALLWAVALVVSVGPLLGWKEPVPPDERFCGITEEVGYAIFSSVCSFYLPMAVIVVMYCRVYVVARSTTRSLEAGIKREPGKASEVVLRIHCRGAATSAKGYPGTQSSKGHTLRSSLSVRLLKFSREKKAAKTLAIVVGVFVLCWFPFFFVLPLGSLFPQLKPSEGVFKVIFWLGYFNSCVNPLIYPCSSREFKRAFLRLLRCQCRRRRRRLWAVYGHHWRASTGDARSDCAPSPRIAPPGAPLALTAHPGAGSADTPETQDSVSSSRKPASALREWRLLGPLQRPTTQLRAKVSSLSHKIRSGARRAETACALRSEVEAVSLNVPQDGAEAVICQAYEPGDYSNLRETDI
In words: Displacement of [3H]prazosin from alpha-1 adrenergic receptor in rat cortex.

Molecules are shown by their SMILES.

In general, Ki refers to the equilibrium dissociation constant of an inhibitor or competing ligand from its target. A low value points to tighter binding. `CCOC(=O)[C@@H]1CCCN(CCCC(C)(C)S(=O)(=O)c2ccccc2)C1` returned a Ki of more than 4 µM.

The compound `CC(C)(CCCN1CCCC(C(F)(F)F)C1)S(=O)(=O)c1ccccc1` (centres undefined) yielded a Ki of more than 4 µM. In the case of `CC(C)(CCCN1CCCC(c2ccccc2)C1)S(=O)(=O)c1ccccc1` (centres undefined), the Ki is 0.54 µM. In the case of `CC(C)(CCCN1CCCC(c2cnco2)C1)S(=O)(=O)c1ccccc1` (centres undefined), the Ki was more than 4 µM.
